# From US20120035247A1, “RNA Interference Mediated Inhibition of Signal Transducer and Activator of Transcription 6 (STAT6) Gene Expression Using Short Interfering Nucleic Acid (siNA)” (Merck Sharp & Dohme Corp., priority 2009, published 2012)
# [invAb] = inverted abasic unit; m = 2'-O-methyl; r = 2'-OH (RNA); f = 2'-fluoro
# Tests used:
# STAT6 mRNA = assay: STAT6 siNA screen in mouse NIH 3T3 cells, STAT6 mRNA by quantitative RT-PCR (Taqman); type: cell-based; settings: mouse NIH3T3 cells, 10 nM siNA, 24 hrs, normalized to GAPDH and non-targeting control, n = 2
# Method in brief: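 NIH 3T3 cells, 5000/well, transfected after 24 h with siNA (10 nM final) via RNAiMax and harvested 24 h later. STAT6 mRNA quantified by TaqMan RT-qPCR with GAPDH; knock-down by comparative Ct (2^−ΔΔCt) against non-targeting control siNA.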
# [1] = system: human STAT4 mRNA transcript; assay: STAT4 specificity screen in human A549 cells, STAT4 mRNA by quantitative RT-PCR; type: cell-based; settings: three experiments, mean ± standard deviation
# Experimental: A549 (human; ATCC cat# CCL-185): Cells were cultured at 37° C. in the presence of 5% CO2 and grown in Ham's F12K medium with 2 mM L-glutamine adjusted to contain 1.5 g/L sodium bicarbonate and supplemented with fetal bovine serum at a final concentration of 10%, 100 μg/mL of streptomycin, and 100 U/mL penicillin.
# A series of probes and primers were used to detect the various mRNA transcripts of the genes of 13-Actin (human cell line only), and of STATE and GAPDH in mouse and human cell lines. All Taqman probes and primers for the experiments here-in described were supplied as pre-validated sets by Applied Biosystems, Inc. (see Table 2).
# The assays were performed on an ABI 7900 instrument, according to the manufacturer's instructions. A TaqMan Gene Expression Master Mix (provided in the Cells-to-CTT™, Applied Biosystems, Cat #4399002) was used. The PCR reactions were carried out at 50° C. for 2 min, 95° C. for 20 min followed by 40 cycles at 95° C. for 15 secs and 60° C. for 1 min.
# The expression level of the gene of interest and % knock-down was calculated using Comparative Ct method:
# ΔΔCt=ΔCt(Target siNA)−ΔCt(NTC)
# Relative expression level=2^−ΔΔCt
# The non-targeting control siNA was, unless otherwise indicated, chosen as the value against which to calculate the % knock-down, because it is the most relevant control.
# The siNAs from Table 4 were tested in human A549 cell line at a lower concentration (1 nM versus the original screening concentration of 10 nM) to determine the effect of the STATE siRNAs on the mRNA transcript of human STAT4.
Substance,% KD STAT6 (STAT6 mRNA),% KD STAT4 1 nM [1]
"29990-DC: STAT6 siNA duplex; sense SEQ ID NO: 44, antisense SEQ ID NO: 45; target GUGAAAGCCUGGUGGACAU, site 954 (sense GUGAAAGCCUGGUGGACAUTT; antisense AUGUCCACCAGGCUUUCACUU; sense: DNA at AGT, 2'-fluoro at CU, [invAb] at 5' end, 3' end, backbone not given here; antisense: sugars from the 5' end rrrfffmffmmmfffffmfmm, backbone not given here) [STAT6 siNA duplex; target GUGAAAGCCUGGUGGACAU, site 954]",41.6 ± 7.4%,−2.1 ± 25.7%
"29997-DC: STAT6 siNA duplex; sense SEQ ID NO: 58, antisense SEQ ID NO: 59; target CUACCAUGGUGCCUUCUUA, site 2262 (sense CUACCAUGGUGCCUUCUUATT; antisense UAAGAAGGCACCAUGGUAGUU; sense: DNA at AGT, 2'-fluoro at CU, [invAb] at 5' end, 3' end, backbone not given here; antisense: sugars from the 5' end rrrmmmmmfmffmfmmfmmmm, backbone not given here) [STAT6 siNA duplex; target CUACCAUGGUGCCUUCUUA, site 2262]",28.7 ± 6.1%,2.6 ± 25%
"30008-DC: STAT6 siNA duplex; sense SEQ ID NO: 80, antisense SEQ ID NO: 81; target CUGCUCUGCUCAGAUGUGA, site 2549 (sense CUGCUCUGCUCAGAUGUGATT; antisense UCACAUCUGAGCAGAGCAGUU; sense: DNA at AGT, 2'-fluoro at CU, [invAb] at 5' end, 3' end, backbone not given here; antisense: sugars from the 5' end rrrfmfffmmmfmmmmfmmmm, backbone not given here) [STAT6 siNA duplex; target CUGCUCUGCUCAGAUGUGA, site 2549]",77.9 ± 7.5%,16.4 ± 17%
